Where a SMILES comes first, the peptide text is derived from it.
Target: HLA A*3001 (Homo sapiens, UniProt P04439, D140H/D185E/E176W/F33S/G80R/H175R/K168Q/R138E/R41S)
Test: biochemical
Assay type: binding

Chain of HLA A*3001 (P04439 25-365 limits assumed, stated change not applied): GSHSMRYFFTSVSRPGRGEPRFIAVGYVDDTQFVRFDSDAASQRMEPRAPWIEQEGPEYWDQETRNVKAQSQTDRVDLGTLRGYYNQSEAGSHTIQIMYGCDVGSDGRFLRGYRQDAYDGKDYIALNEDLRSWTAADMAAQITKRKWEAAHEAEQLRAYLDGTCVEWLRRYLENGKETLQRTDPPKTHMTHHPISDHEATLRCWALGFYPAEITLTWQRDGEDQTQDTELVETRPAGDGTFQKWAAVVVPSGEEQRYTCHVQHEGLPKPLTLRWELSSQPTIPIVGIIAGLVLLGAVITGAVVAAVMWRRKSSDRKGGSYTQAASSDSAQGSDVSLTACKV

Row | Compound | IC50
1 | CC[C@H](C)[C@H](NC(=O)[C@H](CCCNC(=N)N)NC(=O)[C@@H](NC(=O)[C@@H](N)CCCCN)[C@@H](C)O)C(=O)N[C@@H](CCCNC(=N)N)C(=O)N[C@@H](CC(N)=O)C(=O)N[C@@H](CC(C)C)C(=O)N[C@@H](CCCCN)C(=O)N[C@@H](CCCNC(=N)N)C(=O)O [3102.0236] (H-KTRIRNLKR-OH) | 6.5 nM
2 | CC[C@H](C)[C@H](NC(=O)[C@H](CCC(N)=O)NC(=O)[C@H](CCC(=O)O)NC(=O)[C@H](CCCNC(=N)N)NC(=O)[C@H](C)NC(=O)[C@@H](N)CCCNC(=N)N)C(=O)N[C@@H](CO)C(=O)N[C@@H](CC(N)=O)C(=O)N[C@@H](CC(C)C)C(=O)O [3102.0237] (H-RAREQISNL-OH) | 2.7 nM
3 | CC(C)C[C@H](NC(=O)[C@H](CC(=O)O)NC(=O)[C@H](CCCCN)NC(=O)[C@@H](NC(=O)[C@@H](N)CCCCN)C(C)C)C(=O)N[C@@H](Cc1ccccc1)C(=O)N[C@@H](CC(N)=O)C(=O)N[C@H](C(=O)N[C@@H](CCCCN)C(=O)O)[C@@H](C)O [3102.0238] (H-KVKDLFNTK-OH) | 38 nM
4 | CC[C@H](C)[C@H](NC(=O)[C@@H](NC(=O)[C@@H](NC(=O)[C@H](CCCCN)NC(=O)[C@H](C)NC(=O)[C@@H](N)CCCCN)[C@@H](C)O)[C@@H](C)O)C(=O)N[C@@H](CO)C(=O)N[C@@H](CC(N)=O)C(=O)N[C@@H](Cc1ccc(O)cc1)C(=O)O [3102.0241] (H-KAKTTISNY-OH) | 24 nM
5 | CC(C)C[C@H](NC(=O)[C@H](CC(N)=O)NC(=O)[C@@H](NC(=O)[C@H](CC(C)C)NC(=O)[C@H](CCCNC(=N)N)NC(=O)[C@H](CCC(N)=O)NC(=O)[C@@H](N)CCCCN)[C@@H](C)O)C(=O)N[C@@H](CCC(=O)O)C(=O)N[C@@H](CCCCN)C(=O)O [3102.0243] (H-KQRLTNLEK-OH) | 0.95 nM
6 | CC[C@H](C)[C@H](NC(=O)[C@H](CCSC)NC(=O)[C@H](C)NC(=O)[C@H](C)NC(=O)[C@H](CCCNC(=N)N)NC(=O)[C@H](CC(C)C)NC(=O)[C@@H](N)[C@@H](C)O)C(=O)N[C@@H](CO)C(=O)N[C@@H](CC(C)C)C(=O)O [3102.0245] (H-TLRAAMISL-OH) | 0.71 nM
7 | CC[C@H](C)[C@H](NC(=O)[C@H](CC(C)C)NC(=O)[C@H](CO)NC(=O)[C@@H](NC(=O)[C@H](CCCNC(=N)N)NC(=O)[C@@H](NC(=O)[C@@H](N)CCCNC(=N)N)C(C)C)[C@@H](C)CC)C(=O)N[C@@H](Cc1ccc(O)cc1)C(=O)N[C@@H](CC(C)C)C(=O)O [3102.0249] (H-RVRISLIYL-OH) | 0.092 nM
8 | CC(C)C[C@H](NC(=O)[C@H](CO)NC(=O)[C@H](Cc1c[nH]cn1)NC(=O)[C@H](CC(C)C)NC(=O)[C@H](CCCNC(=N)N)NC(=O)[C@H](C)NC(=O)[C@H](CO)NC(=O)[C@@H](NC(=O)[C@@H](N)Cc1c[nH]cn1)[C@@H](C)O)C(=O)O [3102.0250] (H-HTSARLHSL-OH) | 4.1 nM
9 | C[C@@H](O)[C@H](N)C(=O)N[C@H](C(=O)N[C@@H](CCCCN)C(=O)N[C@@H](CC(N)=O)C(=O)NCC(=O)N[C@@H](CCC(N)=O)C(=O)N1CCC[C@H]1C(=O)N[C@@H](CCCNC(=N)N)C(=O)N[C@@H](CCCCN)C(=O)O)[C@@H](C)O [3102.0252] (H-TTKNGQPRK-OH) | 0.23 nM
10 | CC[C@H](C)[C@H](NC(=O)[C@H](CC(N)=O)NC(=O)[C@H](CO)NC(=O)[C@H](CCSC)NC(=O)[C@H](CC(C)C)NC(=O)[C@H](CCCCN)NC(=O)[C@@H](NC(=O)[C@@H](N)CCCNC(=N)N)[C@@H](C)O)C(=O)N[C@@H](CCCCN)C(=O)O [3102.0253] (H-RTKLMSNIK-OH) | 0.38 nM
11 | CC[C@H](C)[C@H](NC(=O)[C@H](CCSC)NC(=O)[C@H](CCSC)NC(=O)[C@@H](NC(=O)[C@@H](N)CCCCN)[C@@H](C)O)C(=O)N[C@@H](CC(N)=O)C(=O)N1CCC[C@H]1C(=O)N[C@@H](Cc1ccccc1)C(=O)N[C@@H](CCSC)C(=O)O [3102.0254] (H-KTMMINPFM-OH) | 0.36 nM
12 | CC[C@H](C)[C@H](NC(=O)[C@@H](NC(=O)[C@H](CO)NC(=O)[C@@H](N)CCSC)C(C)C)C(=O)N[C@@H](CO)C(=O)N[C@@H](CC(N)=O)C(=O)N1CCC[C@H]1C(=O)N[C@@H](CO)C(=O)N[C@@H](CCCCN)C(=O)O [3102.0255] (H-MSVISNPSK-OH) | 20 nM
13 | CC(C)C[C@H](NC(=O)[C@H](CCCCN)NC(=O)[C@H](Cc1ccccc1)NC(=O)[C@@H](N)CCCCN)C(=O)N[C@H](C(=O)N[C@@H](CC(C)C)C(=O)N1CCC[C@H]1C(=O)N[C@@H](CC(N)=O)C(=O)N[C@@H](CCCCN)C(=O)O)[C@@H](C)O [3102.0261] (H-KFKLTLPNK-OH) | 12 nM
14 | CC(C)C[C@H](NC(=O)[C@H](CCCCN)NC(=O)[C@H](CCCCN)NC(=O)[C@@H](NC(=O)[C@@H](N)CCCCN)C(C)C)C(=O)N[C@@H](CC(N)=O)C(=O)N[C@@H](CCCNC(=N)N)C(=O)N[C@@H](CS)C(=O)N[C@@H](C)C(=O)O [3102.0262] (H-KVKKLNRCA-OH) | 3.1 nM
15 | CSCC[C@H](NC(=O)[C@H](Cc1ccccc1)NC(=O)[C@H](CCCCN)NC(=O)[C@H](CCCNC(=N)N)NC(=O)[C@H](CO)NC(=O)[C@@H](N)CCSC)C(=O)N[C@@H](CCC(N)=O)C(=O)N[C@H](C(=O)N[C@@H](Cc1ccc(O)cc1)C(=O)O)C(C)C [3102.0264] (H-MSRKFMQVY-OH) | 1.5 nM
16 | CC(C)C[C@H](NC(=O)[C@@H](NC(=O)[C@H](CS)NC(=O)[C@H](C)NC(=O)[C@H](Cc1ccccc1)NC(=O)[C@H](CCCCN)NC(=O)[C@H](CO)NC(=O)[C@@H](N)CO)C(C)C)C(=O)N[C@@H](CCCCN)C(=O)O [3102.0265] (H-SSKFACVLK-OH) | 9.9 nM
17 | C[C@H](NC(=O)[C@H](CCCNC(=N)N)NC(=O)[C@H](CC(N)=O)NC(=O)[C@H](CCC(N)=O)NC(=O)[C@H](Cc1ccccc1)NC(=O)[C@H](CCCCN)NC(=O)[C@@H](NC(=O)[C@@H](N)CCCNC(=N)N)[C@@H](C)O)C(=O)N[C@@H](CCCCN)C(=O)O [3102.0266] (H-RTKFQNRAK-OH) | 0.16 nM
18 | CC[C@H](C)[C@H](NC(=O)[C@H](CCCCN)NC(=O)[C@H](Cc1c[nH]cn1)NC(=O)[C@@H](N)CCCCN)C(=O)N[C@@H](Cc1ccccc1)C(=O)N[C@@H](CO)C(=O)N1CCC[C@H]1C(=O)N[C@@H](Cc1ccccc1)C(=O)N[C@@H](CCCCN)C(=O)O [3102.0267] (H-KHKIFSPFK-OH) | 0.89 nM
19 | CSCC[C@H](NC(=O)[C@H](CCCNC(=N)N)NC(=O)[C@H](Cc1ccc(O)cc1)NC(=O)[C@@H](N)CCCNC(=N)N)C(=O)N[C@@H](Cc1c[nH]cn1)C(=O)N1CCC[C@H]1C(=O)N[C@@H](CCSC)C(=O)N[C@@H](CO)C(=O)N[C@@H](CCCCN)C(=O)O [3102.0268] (H-RYRMHPMSK-OH) | 0.068 nM
20 | CC[C@H](C)[C@H](NC(=O)[C@H](CCC(N)=O)NC(=O)[C@@H](NC(=O)[C@@H](NC(=O)[C@H](C)NC(=O)[C@H](CCCCN)NC(=O)[C@@H](NC(=O)[C@@H](N)[C@@H](C)O)[C@@H](C)O)[C@@H](C)O)[C@@H](C)O)C(=O)N[C@@H](C)C(=O)O [3102.0270] (H-TTKATTQIA-OH) | 6.5 nM
21 | CC(C)[C@H](NC(=O)[C@H](Cc1c[nH]cn1)NC(=O)[C@@H](NC(=O)[C@H](CC(=O)O)NC(=O)[C@H](CCCCN)NC(=O)[C@H](CO)NC(=O)[C@@H](N)CCCNC(=N)N)[C@@H](C)O)C(=O)N[C@@H](Cc1ccccc1)C(=O)N[C@@H](C)C(=O)O [3102.0271] (H-RSKDTHVFA-OH) | 0.019 nM
